Patent publication US5096924A, “Anticancer antibiotic MI43-37F11 substance” (501 Azidan Hojin Biseibutsu Kagaku Kenkyu Kai, priority 1989, dated 1992)
In brackets after ≈: the same amount, converted by molar mass. Entries after “also recorded” stand apart in the source; their conditions may differ.

Tests used:
[1] = system: Ehrlich carcinoma; experiment: Therapeutic treatment of Ehrlich carcinoma-bearing mice by oral administration; type: in vivo, ICR mice; conditions: days 1-9, 14th day; for Weight of tumor (mg ± S.D.): control 1,084 ± 256
Description: On the 15th day after the transplantation of the carcinoma cells, the mass of the tumor (carcinoma) was surgically removed out of each mouse and weighed. The rate of the reduction in the weight of the tumor (carcinoma) obtained from the group of mice treated with MI43-37F11 substance was evaluated in term of the rate (%) of inhibition, with such an assumption that the weight of the tumor obtained from the control group of mice was amounting to 100. In other words, the rate (%) of inhibition to the growth of Ehrlich carcinoma was calculated according to the following equation [formula] where C means the weight of the tumor in the control group of mice (untreated) and T means the weight of the tumor of the treated group of mice.
(b) Another experiments for therapeutic treatment of Ehrlich carcinoma-bearing mice were conducted by oral administration of MI43-37F11 substance. Thus, the cell suspension of Ehrlich ascites carcinoma cells was subcutaneously inoculated at the abdominal region of ICR mice (female, 6-week old, 5 mice in each treated group) so that the number of the carcinoma cells as subcutaneously implanted was 2×10^6 cells per mouse. The MI43-37F11 substance was orally administered to the mice of the treated group at a dosage of 6.3 mg/kg, 12.5 mg/kg, 25 mg/kg, […] or 100 mg/kg once a day during the consecutive 9 days from the 1st day to the 9th day after the implantation of the carcinoma cells. On the 14th day after the implantation of the carcinoma cells, the mass of the tumor (carcinoma) was surgically removed out of each mouse and weighed. The weight of the tumor obtained from the treated group of mice was compared with the weight of the tumor obtained from the control group of mice (untreated), by calculating the rate (%) of inhibition according to the same equation as above.

[2] = Toxicity to mammalian; type: in vivo; conditions: general statement, no data
[3] = system: mouse Leukemia P388; experiment: Inhibition of proliferation of mouse leukemia P388 cells; type: cell-based; conditions: 48 h; mouse leukemia P388, 37° C, 2 days
Description: A cell suspension containing cells of mouse Leukemia L1210, mouse Leukemia P388, mouse Leukemia EL4, mouse IMC carcinoma or human lung cancer LX-1 cells in a culture medium containing 10% calf serum at a cell density of 1 x 10^5 cells/ml was prepared, and 200 μl-portion of the cell suspension so prepared was placed in a microplate and then added with a solution of MI43-37F11 substance at varying concentrations (dissolved in a mixture of water and dimethylsulfoxide (95:5)). The cell suspension containing the test compound added was subsequently incubated at 37° C for 2 days (but 5 days for the LX-1 cells).
After the incubation, the number of the cells of the L1210 cells, P388 cells, the EL4 cells and the IMC carcinoma cells in the treated groups was counted by means of Coulter-counter. The control group (untreated) of the cell suspension to which the test compound was not added was incubated in the same way as above and then the number of the cells was similarly counted.
Rate (%) of inhibition of the cell proliferation of the treated group against that of the control group (untreated) was evaluated. […]

[4] = system: peritoneal macrophages; experiment: Activation of peritoneal macrophages (production of O2-); type: in vivo, CDF1 mice; conditions: for Rate (%) of increase in production of O2^-: one day before harvest, control 100
Description: (3) Experiments for estimation of the activity of MI43-37F11 substance to activate peritoneal macrophages were conducted by the following procedure. Thus, one day before the harvest of the peritoneal macrophages, the antibiotic MI43-37F11 substance was intraperitoneally administered to CDF1 mice (8-week old, female, 3 mice in each group) at a dosage of 50 mg/kg, 12.5 mg/kg or 3.125 mg/kg. One day after the administration, the macrophages were harvested from the peritoneal cavity of the treated mice and placed into a culture medium present in a plastic dish (Falcone, No. 3002, […], a product of Decton Dikinson & Company) at the cell concentration of 1×10^6 cells/m(, followed by incubation of the macrophages. The incubated medium containing the macrophages was then added with 100 ng/ml of phorbol myristate acetate to elicite the macrophages for their production of O2 -. The amount of O2 - was determined by reductive reaction with cytochrome C. The control group of mice (untreated) received only intraperitoneal injection of physiological saline in place of the administration of MI43-37F11 substance before the harvest of the peritoneal macrophages was done. Assumed that the amount of O2 - as produced and liberated by the peritoneal macrophages which were harvested from the mice of the control group was amounting to 100, the rate of increase in the amount of O2 - as produced by the peritoneal macrophages of the mice of the treated group was evaluated. In other words, the rate (%) of increase in the production of O2 - by the peritoneal macrophages of the mice of the treated group was calculated according to the following equation; [formula] where T means the amount of O2^- produced by the peritoneal macrophages of the mice of the treated group and C means the amount of O2^- produced by the peritoneal macrophages of the control group (untreated).

COc1cc(O)c2c(=O)oc(CO)cc2c1 [MI43-37F11 substance]
Rate (%) of Inhibition ([1]; 6.3 mg/kg/day oral): 45% | Weight of tumor (mg ± S.D.) ([1]; 6.3 mg/kg/day oral, *P < 0.05): 586 ± 282 mg | Rate (%) of Inhibition ([1]; 12.5 mg/kg/day oral): 63% | Weight of tumor (mg ± S.D.) ([1]; 12.5 mg/kg/day oral, **P < 0.01): 391 ± 266 mg | Rate (%) of Inhibition ([1]; 25.0 mg/kg/day oral): 74% | Weight of tumor (mg ± S.D.) ([1]; 25.0 mg/kg/day oral, ***P < 0.001): 280 ± 152 mg | Rate (%) of Inhibition ([1]; 50.0 mg/kg/day oral): 55% | Weight of tumor (mg ± S.D.) ([1]; 50.0 mg/kg/day oral, **P < 0.01): 485 ± 123 mg | Rate (%) of Inhibition ([1]; 100.0 mg/kg/day oral): 47% | Weight of tumor (mg ± S.D.) ([1]; 100.0 mg/kg/day oral, **P < 0.01): 566 ± 421 mg | toxicity to mammalian [2]: low toxicity to mammalian; also recorded: without showing any observable toxicity to mammalian | IC50 [3]: 50 µg/mL (≈ 225 µM) | Rate (%) of increase in production of O2^- ([4]; 3.125 mg/kg i.p.): 105% | Rate (%) of increase in production of O2^- ([4]; 12.5 mg/kg i.p.): 127% | Rate (%) of increase in production of O2^- ([4]; 50 mg/kg i.p.): 255% | increased production of O2- by peritoneal macrophages ([4]; summary in words): effective
